These results are taken from patent US10793526B2, “Hydantoin derivative compounds, methods of use and methods of treatment” (University of South Florida, priority 2016, dated 2020).

In series [1] the test system is methicillin-resistant S. aureus (MRSA, ATCC 33591). Put plainly: Minimum inhibitory concentration (MIC) assay, MRSA. The series is classed as cell-based, Staphylococcus aureus. As to the method: (§1) Minimum inhibitory concentrations (MICs) assay.^2
(§2) All compounds were tested against six different bacteria strains: methicillin-resistant S. aureus (MRSA, ATCC 33591), E. coli (ATCC 25922), methicillin-resistant S. epidermidis (MRSE, RP62A), K. pneumoniae (ATCC 13383), vancomycin-resistant Enterococcus faecalis (VREF, ATCC 700802), P. aeruginosa (ATCC 27853). One colony of each bacteria was inoculated in 4 mL TSB buffer at 37° C. overnight, which was then diluted 100 times, and the bacteria were allowed to grow to the mid-logarithmic phase. 50 μL hydantoin compounds in 2-fold serial dilution of TSB were added in the 96-well plate, then 50 μL diluted bacterial in TSB medium (1×10^6 CFU/mL) was added to each well. After 16 h of incubation at 37° C., the absorption at 600 nm wavelength on a Biotek Synergy HT microtiter plate reader was recorded. Minimum inhibitory concentrations were determined as the lowest concentrations that inhibited bacteria growth completely.

The test system of series [2] is vancomycin-resistant Enterococcus faecalis (VREF, ATCC 700802). Put plainly: Minimum inhibitory concentration (MIC) assay, VREF. The conditions noted are these: Enterococcus faecalis, ATCC700802, Gram positive, 16 h incubation, read-out: MIC (μg/mL) VREF. The series is classed as cell-based. As to the method: as §1, §2
A further series has as its system E. coli (ATCC 25922). Put plainly: Minimum inhibitory concentration (MIC) assay, E. coli. The series is classed as cell-based, Escherichia coli. The conditions noted are these: Escherichia coli, ATCC25922, Gram negative, 16 h incubation, read-out: MIC (μg/mL) E. coli. The protocol: as §1, §2
The subject of series [3] is red blood cells (RBCs) of mice. Put plainly: Hemolytic assay. The series is classed as cell-based. The conditions noted are these: hemolytic activity; mouse RBCs, 1 h at 37° C. As to the method: Fresh red blood cells (RBCs) of mice were washed with 1×PBS buffer and centrifuged 10 min at 3500 rpm for 3 times until the supernatant was clear, then RBCs were diluted into 5% v/v suspension in 1×PBS. 50 μL compounds in PBS were 2-fold serially diluted in a 96-well plate, and incubated with 50 μL RBCs suspension for 1 h at 37° C. The mixture was then centrifuged for 10 min at 3500 rpm. Subsequently, 30 μL of the supernatant was added to 100 μL PBS, then the absorbance of mixture was read on a Biotek Synergy HT plate reader at 540 nm. The hemolytic activity was calculated by the formula % hemolysis=(Abssample−AbsPBS)/(AbsTriton−AbsPBS)×100%. 1% Triton X-100 were used as the positive control and 1×PBS buffer was used as the negative control.

The test system of series [4] is ovarian cancer cells (C13). Put plainly: Selectivity for mammalian cells, C13. The format is cell-based. The conditions noted are these: Homo sapiens, read-out: IC50 toward ovarian cancer cells (C13).
Another series has as its system MRSA. Put plainly: Drug resistance assay. The series is classed as cell-based, Staphylococcus aureus. The protocol: The lead compound 22 was chosen for drug resistance studies. Briefly, after its MIC against MRSA was determined, the bacteria solution from the well of the ½ MIC was withdrawn and diluted to 1×10^6 CFU/mL for the next MIC measurement. The measurement was repeated for 14 passages.

In brackets after ≈: the same amount, converted by molar mass.

Broadly, the HC50 is the concentration giving 50% haemolysis. As usually defined, the IC50 is the point on the concentration scale where inhibition reaches its midpoint. Take `CCCCCCCCCCCC(=O)N[C@@H](CCCCN)CN1CC(=O)N(c2cccc(Cl)c2)C1=O` [Compound 22, (S)—N-(6-amino-1-(3-(3-chlorophenyl)-2,4-dioxoimidazolidin-1-yl)hexan-2-yl)dodecanamide]: the MIC was 0.5 µg/mL in series [1] (Staphylococcus aureus, Gram positive, ATCC 33591, 16 h incubation, read-out: MIC (μg/mL) MRSA); 0.5 µg/mL in series [2]; 1 µg/mL in the series with E. coli (ATCC 25922). Besides, in series [1] (ratio of MICs), the “effectiveness toward MRSA compared with nitrofurantoin” value was found to be 25 fold. The “HC50” value in series [3] stood at 95 µg/mL. Moreover, the IC50 in series [4] was determined as 90 µg/mL (≈ 177 µM). Further, in the series with MRSA, the “MIC against MRSA after 14 passages at half MIC” value is “virtually remain unchanged”.
